Values joined by “and” are separate entries in the source; they are usually repeats but may differ in a detail not shown here. Equal values may be shown once.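 Cells were grown in 96-well plates and exposed to each compound for 48 hours at five concentrations; endpoints were interpolated linearly between bracketing concentrations, or set to the highest concentration if not reached. Here, GI50 denotes the concentration required for 50% inhibition of growth. At the TGI there is no net growth.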

One test concerns SN12C renal. The test can be described thus: inhibition of tumour cell growth, NCI panel, 48 h.
Take `C=C(C)[C@@H]1CC[C@]2(COCCCN)CC[C@]3(C)[C@H](CC[C@@H]4[C@@](C)(CCCNCCCN)[C@H](C(=C)C)CC[C@]43C)[C@@H]12`: the GI50 was 1.58 µM and the TGI was determined as 2.96 µM.

As for `O=C(O)CSCCc1ccccc1`, the TGI was more than 100 µM.

Molecule `CCOC1C(Br)Cn2c(=O)c3cc4ccccc4cc3c(=O)n2C1C` (configuration not stated) showed a TGI of more than 100 µM.

`O=NNc1ccc2ccccc2n1` had a TGI of more than 100 µM.

For `O=C1NC(=S)S/C1=C/c1ccc2c(c1)OCO2`, the GI50 was more than 100 µM and the TGI is more than 100 µM.

In turn, `O=C(O)CCCc1ccc2ccc3ccccc3c2c1` gave a TGI of more than 100 µM.

`CCCC1(CC(=O)O)OCCc2c1[nH]c1ccccc21` (configuration not stated): the TGI was more than 100 µM.

The molecule `CN(C)Cc1cc(C(F)(F)F)ccc1C(O)(c1ccccc1)c1ccccc1` displayed a TGI of 29.3 µM.

Regarding `CSC(SC)(C(=O)O)c1cc(-c2c(Cl)cccc2Cl)no1`, the TGI was more than 100 µM.

In turn, `COc1ccc2nc3cc(Cl)ccc3c(Sc3ccc([N+](=O)[O-])cc3C)c2c1` registered a TGI of more than 100 µM.

A further test has as its system TK-10 renal. In words: inhibition of tumour cell growth, NCI panel, 48 h.
Take `CCN1C(=O)c2ccc3c4c(ccc(c24)C1=O)C(=O)N(CCCNCc1ccccc1OC)C3=O`: the GI50 was 2.52 µM and the TGI is 7.6 µM.

On to `O=C(/C=C/c1ccccc1)Nc1ncc(Cc2ccccc2Cl)s1`, for which the GI50 is more than 100 µM and the TGI was more than 100 µM.

Take `CN(c1ccc(NC(=O)Nc2c(Cl)cccc2Cl)cc1)c1ccnc(Nc2cccc(CS(C)(=O)=O)c2)n1`: the GI50 was 3.98 µM and the TGI turned out to be 9.02 µM.

With `CCCCCCCCCCCCCCCCCCOC[C@H](COP(=O)(O)O[C@H]1[C@H](O)[C@@H](O)[C@H](O)C[C@H]1O)OC`, the GI50 was 41.8 µM and 7.74 µM; the TGI is > 100 µM and 20.7 µM.

Turning to `CN(C)C/C=C/C(=O)Nc1ccc(C(=O)N[C@@]2(C)CCC[C@@H](Nc3ncc(Cl)c(-c4c[nH]c5ccccc45)n3)C2)nc1`, the GI50 was 0.0153 µM and the TGI worked out at 1.11 µM.

For `CC(C)C(O)(C(C)C)C(C)C`, the TGI is more than 100 µM.

As for `COc1ccc2c(c1)C(=O)CCc1cc(OC)c(OC)c(OC)c1-2`, the TGI is more than 100 µM.

For the molecule `Cn1c(Cl)c(/C=C2/C(=O)Nc3ccccc32)c2ccccc21`, the GI50 is 1.5 µM and the TGI was 20.4 µM.

`O=C1C(=O)c2ccccc2C(O)=C1C(C1=C(O)c2ccccc2C(=O)C1=O)c1ccc(Cl)cc1` registered a TGI of 28.2 µM.

For the molecule `C=C(C)[C@@H]1CC[C@]2(COCCCN)CC[C@]3(C)[C@H](CC[C@@H]4[C@@](C)(CCCNCCCN)[C@H](C(=C)C)CC[C@]43C)[C@@H]12`, the GI50 was 1.68 µM and the TGI was 3.15 µM.

For `O=C(O)CSCCc1ccccc1`, the TGI is more than 100 µM.

With `CCOC1C(Br)Cn2c(=O)c3cc4ccccc4cc3c(=O)n2C1C` (configuration not stated), the TGI is more than 100 µM.

In turn, `O=NNc1ccc2ccccc2n1` had a TGI of more than 100 µM.

Regarding `O=C1NC(=S)S/C1=C/c1ccc2c(c1)OCO2`, the GI50 is more than 100 µM and the TGI is more than 100 µM.

`O=C(O)CCCc1ccc2ccc3ccccc3c2c1` registered a TGI of more than 100 µM.

`CCCC1(CC(=O)O)OCCc2c1[nH]c1ccccc21` (configuration not stated): the TGI was more than 100 µM.

Turning to `CN(C)Cc1cc(C(F)(F)F)ccc1C(O)(c1ccccc1)c1ccccc1`, the TGI was found to be 31 µM.

`CSC(SC)(C(=O)O)c1cc(-c2c(Cl)cccc2Cl)no1` yielded a TGI of more than 100 µM.

Molecule `COc1ccc2nc3cc(Cl)ccc3c(Sc3ccc([N+](=O)[O-])cc3C)c2c1` came in with a TGI of more than 100 µM.

The subject of the next test is U251 CNS. In words: inhibition of tumour cell growth, NCI panel, 48 h.
Consider `CCN1C(=O)c2ccc3c4c(ccc(c24)C1=O)C(=O)N(CCCNCc1ccccc1OC)C3=O`, for which the GI50 is 1.25 µM and the TGI turned out to be 3.32 µM.

`O=C(/C=C/c1ccccc1)Nc1ncc(Cc2ccccc2Cl)s1`: the GI50 is 0.397 µM and the TGI was more than 100 µM.

With `CN(c1ccc(NC(=O)Nc2c(Cl)cccc2Cl)cc1)c1ccnc(Nc2cccc(CS(C)(=O)=O)c2)n1`, the GI50 was 2.62 µM and the TGI is 9.61 µM.

`CCCCCCCCCCCCCCCCCCOC[C@H](COP(=O)(O)O[C@H]1[C@H](O)[C@@H](O)[C@H](O)C[C@H]1O)OC`: the GI50 is 33 µM and 5.89 µM; the TGI is > 100 µM and 19.2 µM.

Turning to `CC(C)C(O)(C(C)C)C(C)C`, the TGI was more than 100 µM.

Take `COc1ccc2c(c1)C(=O)CCc1cc(OC)c(OC)c(OC)c1-2`: the GI50 was less than 0.01 µM and the TGI came out at 0.18 µM.

Regarding `CCN(CC)CCNC(Cc1ccccc1)c1ccc(OCc2ccccc2)cc1` (configuration not stated), the GI50 was 3.41 µM and the TGI was 15.3 µM.

On to `Cn1c(Cl)c(/C=C2/C(=O)Nc3ccccc32)c2ccccc21`, for which the GI50 was 0.758 µM and the TGI worked out at 14.9 µM.

On to `O=C1C(=O)c2ccccc2C(O)=C1C(C1=C(O)c2ccccc2C(=O)C1=O)c1ccc(Cl)cc1`, for which the TGI amounted to 16.3 µM.

Consider `C=C(C)[C@@H]1CC[C@]2(COCCCN)CC[C@]3(C)[C@H](CC[C@@H]4[C@@](C)(CCCNCCCN)[C@H](C(=C)C)CC[C@]43C)[C@@H]12`, for which the GI50 is 1.7 µM and the TGI was found to be 3.19 µM.

With `O=C(O)CSCCc1ccccc1`, the TGI was more than 100 µM.

On to `CCOC1C(Br)Cn2c(=O)c3cc4ccccc4cc3c(=O)n2C1C` (configuration not stated), for which the TGI is more than 100 µM.

On to `O=NNc1ccc2ccccc2n1`, for which the TGI is more than 100 µM.

On to `O=C1NC(=S)S/C1=C/c1ccc2c(c1)OCO2`, for which the GI50 was more than 100 µM and the TGI was more than 100 µM.

The molecule `O=C(O)CCCc1ccc2ccc3ccccc3c2c1` gave a TGI of more than 100 µM.

As to `CCCC1(CC(=O)O)OCCc2c1[nH]c1ccccc21` (configuration not stated), the TGI is more than 100 µM.

`CN(C)Cc1cc(C(F)(F)F)ccc1C(O)(c1ccccc1)c1ccccc1` returned a TGI of 24.9 µM.

Molecule `CSC(SC)(C(=O)O)c1cc(-c2c(Cl)cccc2Cl)no1` displayed a TGI of more than 100 µM.

Take `COc1ccc2nc3cc(Cl)ccc3c(Sc3ccc([N+](=O)[O-])cc3C)c2c1`: the TGI is more than 100 µM.
